Literature values as cited in PMC2978073 (Journal of medicinal chemistry, 2010).

Key:
[1] = system: rabbit model for cerebral palsy
[2] = compared with 3

Cc1cc(N)nc(C[C@H]2CNC[C@H]2NCCNCc2ccc(Cl)cc2)c1 (racemic) [(±)-2]
effect on eNOS-regulated blood pressure [1]: without affecting eNOS-regulated blood pressure
hypoxia-ischemia induced death [1]: prevent hypoxia-ischemia induced death
number of newborn kits exhibiting cerebral palsy phenotype [1]: reduce the number of newborn kits exhibiting cerebral palsy phenotype

Cc1cc(N)nc(C[C@H]2CNC[C@H]2NCCNCCc2cccc(F)c2)c1 (racemic) [(±)-3]
effect on eNOS-regulated blood pressure [1]: without affecting eNOS-regulated blood pressure
hypoxia-ischemia induced death [1]: prevent hypoxia-ischemia induced death
number of newborn kits exhibiting cerebral palsy phenotype [1]: reduce the number of newborn kits exhibiting cerebral palsy phenotype

Cc1cc(N)nc(C[C@H]2CNC[C@H]2OCCNCCc2cccc(F)c2)c1 (racemic) [(±)-4]
bioavailability [2]: improved bioavailability
